Measurements: patent publication US20070105721A1, “Vinylogous 4-Hpyrones and their use in promoting plant growth” (priority 2003, published 2007)

Legend:
Assay type in all cases: in vivo
[1] = tested on: Grand Rapids Lettuce seeds (Waltham strain); experiment: Grand Rapids bioassay; details: for Germination, Grand Rapids: compounds isolated from smoke, mean (SEM)
Procedure: Grand Rapids Lettuce seeds (Waltham strain) were obtained from R.B. Dessert Seed Co. and were frozen in sachets until use. For testing of aqueous samples, 2.5 mL of test solution was applied to three replicates of 40-50 seeds in Petri dishes (90 mm) lined with two layers of Whatman No. 1 filter paper (7 cm). Millipore filtered water (MP water) was used as a control for each experiment and dilutions of each sample were used to ensure the optimum concentration range for activity. Fractions were reconstituted to their original concentration (before fractionation) and dilutions were made using MP water. Petri dishes were sealed with a layer of plastic wrap, and stored in a light proof container. All manipulations involving the seed were carried out in a dark room and germinants, based on the appearance of a radicle, were scored after 48 hours incubation.

[2] = tested on: Stylidium affine seeds; experiment: Native bioassay; details: compounds isolated from smoke; mean (SEM)
Procedure: (§1) Conostylis aculeata and Stylidium affine seeds were obtained from Nindethana seed service and stored before use. For testing of aqueous samples, three replicates of 20-30 sterilised seeds were added to UV sterilised petri dishes (90 mm), containing two Whatman No. 1 filter papers (7 cm) moistened with the filtered test solution (2.5 mL, 0.22 μm). MP water was used as a control for each experiment and dilutions of each sample were used to ensure the optimum concentration range for activity. Petri dishes were then sealed with parafilm and incubated in the dark at 20±1° C. The seeds were scored on a weekly basis with optimum germination achieved between 4-6 weeks.

[3] = tested on: Conostylis aculeata seeds; experiment: Native bioassay; details: compounds isolated from smoke; mean (SEM)
Procedure: as §1

[4] = 100 ppm, * = inhibits germination at this concentration

| Compound | Germination of formula (5) analogues ([1]; 1 ppm) | Germination of formula (5) analogues ([1]; 10 ppm) | Germination of formula (5) analogues ([1]; 100 ppb) | Germination of formula (5) analogues [1, 4] | Germination, Stylidium affine [2] [%] | Germination, Conostylis aculeata [3] | Germination, Grand Rapids [1] |
| --- | --- | --- | --- | --- | --- | --- | --- |
| CCOC(=O)C(SC(C)=O)=C1C=COC=C1 [Compound 5b, ethyl 2-(acetylthio)-2-(4H-pyran-4-ylidene) acetate] | 64.7 (±4.5) | 82.6 (±3.4) | 54.3 (±7.2) | *39.4 (±2.7) |  |  |  |
| CC1=CC(=CC(=O)c2ccccc2)C=C(C)O1 [Compound 5c, 2-(2,6-dimethyl-4H-pyran-4-ylidene)-1-phenylethanone] | 54.3 (±3.1) | 69.3 (±4.4) | 53.2 (±4.1) | 74.1 (±6.7) |  |  |  |
| CCOC(=O)C=C1C=COC=C1 [Compound 5a, ethyl 2-(4H-pyran-4-ylidene) acetate] | 86.7 (±7.4) | 94.7 (±0.4) | 66.9 (±10.2) | 99.1 (±0.9) |  |  |  |
| Cc1cc(=O)oc2ccoc12 [Compound L-3, 7-methyl-5H-furo[3,2-b]pyran-5-one] |  |  |  |  | 0 | 11.6 (2.5) % | 42.1 (1.5) % |
| O=C1C=C(c2ccco2)CO1 [Compound L-1, 2,3′-bifuran-5′(2′H)-one] |  |  |  |  | 0 | 7.5 (1.3) % | 42.4 (6.6) % |
